These results are taken from publication PMC7559477, “Zinc Binding by Histatin 5 Promotes Fungicidal Membrane Disruption in C. albicans and C. glabrata” (Journal of Fungi, 2020).

Where no end group is shown, it is not given here.

Test [1] deals with Candida albicans strain SC5314. Put plainly: Candidacidal assay, C. albicans. The format is cell-based. Conditions: 0.44 fmol/cell, 1 Zn2+ to 2 peptides, 1 h at 30 °C, 10 mM NaPB pH 7.4; words = versus peptide alone. The procedure:
(§1) Experiments were carried out with Candida albicans strain SC5314 [41] or Candida glabrata strain Cg931010 [42]. Liquid and solid pre-mixed yeast-peptone-dextrose media was used to grow yeast cells (YPD and YPD-Agar, respectively) (Fisher Scientific, Waltham, MA, USA). All media was prepared in deionized water with 50 µg/ mL supplemented uridine (Sigma Aldrich, St. Louis, MO, USA), and sterilized by autoclave. Metal salt solutions of ZnSO4·7H2O (Fisher Scientific, Waltham, MA, USA) were made in High-performance liquid chromatography (HPLC)-grade water (JT Baker, Phillipsburg, NJ, USA) and used within one day of preparation. […]
Cells (C. albicans or C. glabrata) were cultured as previously described. […] Significance of differences in killing between Zn^2+ and Zn^2+-free samples were calculated using one-way ANOVA with Sidak’s multiple comparisons test.
(A) Candidacidal assays of C. albicans SC5314 cells with 1 h incubation at 30 °C of Hst 5 (red), Hst 5ΔMB (blue), and P113 (green) at dosages of 0.44, 3.75, 7.5, 15, and 30 fmol/cell in 10 mM sodium phosphate buffer pH 7.4. […] Significance of differences in killing activity were calculated using one way ANOVA with Sidak’s multiple comparisons test. * indicates p ≤ 0.05, ** indicates p ≤ 0.01, **** indicates p ≤ 0.0001.

The subject of a further test is C. albicans cells. Nature of the test: Peptide uptake (cell association) assay. Conditions: 0.44 fmol/cell, 30 °C, up to 20 min, initial binding subtracted. It counts as cell-based, Candida albicans. Here is the method: as §1
C. albicans cells were added to pre-incubated peptides (30 min, 20 °C) alone or at a 1 Zn^2+:2 peptide ratio, and additionally to Hst 5 at a 3 Zn^2+:2 peptide ratio, using a dose of 0.44 fmol peptide/cell. After cells were added, samples were vortexed briefly and immediately centrifuged for 2 min at 6000× g at 20 °C, after which 10 µL supernatant was removed to new tubes and stored at 4 °C for quantification. […] Protein concentration in supernatant samples was measured by NanoDrop. […] Significance of differences in uptake rate and binding between zinc added and zinc free samples were calculated using two-way ANOVA with Sidak’s multiple comparisons test. […]

As to QQQAKRHHGYKRKFQQQQQSHRGY [Hst 5ΔMB], the “killing with added Zn2+” value in test [1] was “did not significantly alter”. Also, the “total uptake with added Zn2+” value in the test on C. albicans cells (1 Zn2+:2 peptide, 10 mM NaPB pH 7.4, words = versus peptide alone) was determined as 90 pmol. For the same sequence, in the test with C. albicans cells (peptide alone, 10 mM NaPB pH 7.4, supernatant by NanoDrop, at least three days, averaged), the total uptake is given as 370 pmol.
